Tests used:
GSPT1 = target: T1, GSPT1 (Homo sapiens, UniProt P15170+Q96SW2); assay: Western blot degradation of GSPT1 in hPBMCs (24 h); type: cell-based; conditions: compounds at 50 nM and 500 nM
T1 construct: The supernatant was aspirated as the extracted total cell protein; endogenous in cells; host or cells: human peripheral blood mononuclear cells (hPBMCs)
How it was run: (§1)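 PBMC Western blot, 24 h treatment; test levels 50 nM and 500 nM. Band density ÷ internal control, normalised → % remaining; degradation (%) = 1 − remaining.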

CK1α = target: T2, CK1α (Homo sapiens, UniProt P48729+Q96SW2); assay: Western blot degradation of CK1α in hPBMCs (24 h); type: cell-based; conditions: compounds at 50 nM and 500 nM
T2 construct: The supernatant was aspirated as the extracted total cell protein; endogenous in cells; host or cells: human peripheral blood mononuclear cells (hPBMCs)
T2 sequence (P48729 whole entry): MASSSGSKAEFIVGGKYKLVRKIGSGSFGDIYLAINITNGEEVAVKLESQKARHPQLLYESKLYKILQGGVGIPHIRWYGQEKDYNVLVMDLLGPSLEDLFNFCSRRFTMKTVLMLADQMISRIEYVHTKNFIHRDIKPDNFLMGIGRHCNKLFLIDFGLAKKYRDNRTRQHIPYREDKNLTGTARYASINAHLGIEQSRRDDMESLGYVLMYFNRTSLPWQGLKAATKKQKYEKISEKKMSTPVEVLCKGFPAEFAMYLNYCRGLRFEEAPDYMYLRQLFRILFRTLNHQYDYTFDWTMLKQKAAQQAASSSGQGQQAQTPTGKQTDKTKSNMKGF
T2 sequence (Q96SW2 whole entry): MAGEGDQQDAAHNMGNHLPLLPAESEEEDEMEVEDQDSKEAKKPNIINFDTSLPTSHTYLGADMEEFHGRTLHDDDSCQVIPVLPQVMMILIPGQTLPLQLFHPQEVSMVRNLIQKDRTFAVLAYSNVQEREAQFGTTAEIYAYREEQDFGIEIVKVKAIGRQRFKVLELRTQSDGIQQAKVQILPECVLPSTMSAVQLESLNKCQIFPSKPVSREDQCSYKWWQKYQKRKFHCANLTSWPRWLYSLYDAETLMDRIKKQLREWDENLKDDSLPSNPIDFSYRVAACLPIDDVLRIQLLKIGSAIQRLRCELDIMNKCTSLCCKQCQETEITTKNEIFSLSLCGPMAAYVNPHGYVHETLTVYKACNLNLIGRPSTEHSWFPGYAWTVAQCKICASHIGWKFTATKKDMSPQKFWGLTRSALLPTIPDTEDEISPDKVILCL
T2 sequence (Q16531 whole entry partner): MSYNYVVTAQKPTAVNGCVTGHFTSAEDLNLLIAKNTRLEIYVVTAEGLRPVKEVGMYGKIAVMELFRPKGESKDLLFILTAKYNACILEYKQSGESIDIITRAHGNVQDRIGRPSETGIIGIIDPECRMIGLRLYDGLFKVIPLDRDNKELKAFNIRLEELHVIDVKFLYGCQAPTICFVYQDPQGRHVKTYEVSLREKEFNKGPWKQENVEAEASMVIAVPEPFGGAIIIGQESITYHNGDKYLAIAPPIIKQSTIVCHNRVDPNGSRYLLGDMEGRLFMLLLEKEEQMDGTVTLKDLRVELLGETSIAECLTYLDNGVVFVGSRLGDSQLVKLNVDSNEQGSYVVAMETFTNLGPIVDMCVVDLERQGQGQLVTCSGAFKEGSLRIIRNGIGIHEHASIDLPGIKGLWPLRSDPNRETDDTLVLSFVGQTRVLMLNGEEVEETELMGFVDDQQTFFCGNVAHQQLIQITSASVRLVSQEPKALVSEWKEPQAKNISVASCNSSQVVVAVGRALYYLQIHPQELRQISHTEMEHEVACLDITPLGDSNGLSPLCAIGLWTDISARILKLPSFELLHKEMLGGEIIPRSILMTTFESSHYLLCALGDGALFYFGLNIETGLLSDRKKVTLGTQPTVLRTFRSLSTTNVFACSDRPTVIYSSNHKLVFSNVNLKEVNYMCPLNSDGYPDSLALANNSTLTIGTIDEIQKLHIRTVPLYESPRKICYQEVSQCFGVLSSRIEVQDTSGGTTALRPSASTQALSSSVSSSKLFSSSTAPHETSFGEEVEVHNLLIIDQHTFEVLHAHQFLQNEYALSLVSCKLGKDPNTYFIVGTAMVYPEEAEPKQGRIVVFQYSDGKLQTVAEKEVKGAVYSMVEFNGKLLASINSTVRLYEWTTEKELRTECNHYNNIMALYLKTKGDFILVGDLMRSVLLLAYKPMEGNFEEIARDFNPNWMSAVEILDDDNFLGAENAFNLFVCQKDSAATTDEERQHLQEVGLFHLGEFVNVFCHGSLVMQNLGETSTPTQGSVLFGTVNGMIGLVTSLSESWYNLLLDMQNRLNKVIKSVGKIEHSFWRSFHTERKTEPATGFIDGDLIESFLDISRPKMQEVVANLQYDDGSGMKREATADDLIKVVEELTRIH
How it was run: as §1

Jurkat cells = assay: Inhibition of proliferation of T lymphocytic leukemia cells Jurkat (cell viability assay, 96 h); type: cell-based, human; conditions: read-out: inhibitory activity (IC50) against tumor cells proliferation, Jurkat
Experimental: (§2) The tumor cells used herein were cultured in a cell culture medium listed in table 2 at 37 °C in an incubator with 5% CO2. Prior to experimentation, all cell lines used were correctly identified by STR profiling, and tested negative for Mycoplasma contamination using a Mycoplasma detection kit through routine screenings.
(§3) The IC50 values of the compounds of the present disclosure (including the compounds in Table 1, and Examples 1-498) were determined using the CellTiter-Meiluncell Luminescent Cell Viability Assay Kit from Dalian Meilun Biotech Co., Ltd. The detailed procedure is as follows: Tumor cells were seeded in 96-well cell culture plates at the densities specified in Table 3. On the following day, the test compounds of the present disclosure were subjected to serial dilution. […] Subsequently, 0.5 μL of the test compound dilution was transferred into the 96-well plate containing the cells, with each well containing 100 μL of cell culture medium. […] Into the 96-well plate, the diluted test compounds and corresponding detection reagents were added, resulting in final test compound concentrations of 500 nM and 10 nM, respectively. The experimental procedure is described below using the diluted 2 μM test compound as an example.
(§4) 0.5 μL of the aforementioned diluted compound of the present disclosure (including the compounds in Table 1, and Examples 1-498) was added to the seeded cells in 100 μL of medium, yielding a final test compound concentration of 10 nM. After the cells were treated with the compounds of the present disclosure for a specified period, the cell viability assay reagent was added to the culture medium according to the kit's instructions to determine cell viability. […] All controls were treated using the same procedure as the compounds of the present disclosure. The growth inhibition curves for the compounds of the present disclosure were plotted using Prism GraphPad software, and the IC50 values were calculated therefrom.

WEE1 = target: T3, WEE1 (Homo sapiens, UniProt P30291+Q96SW2); assay: Western blot degradation of WEE1 in hPBMCs (24 h); type: cell-based; conditions: compounds at 50 nM and 500 nM
T3 construct: The supernatant was aspirated as the extracted total cell protein; endogenous in cells; host or cells: human peripheral blood mononuclear cells (hPBMCs)
T3 sequence (P30291 whole entry): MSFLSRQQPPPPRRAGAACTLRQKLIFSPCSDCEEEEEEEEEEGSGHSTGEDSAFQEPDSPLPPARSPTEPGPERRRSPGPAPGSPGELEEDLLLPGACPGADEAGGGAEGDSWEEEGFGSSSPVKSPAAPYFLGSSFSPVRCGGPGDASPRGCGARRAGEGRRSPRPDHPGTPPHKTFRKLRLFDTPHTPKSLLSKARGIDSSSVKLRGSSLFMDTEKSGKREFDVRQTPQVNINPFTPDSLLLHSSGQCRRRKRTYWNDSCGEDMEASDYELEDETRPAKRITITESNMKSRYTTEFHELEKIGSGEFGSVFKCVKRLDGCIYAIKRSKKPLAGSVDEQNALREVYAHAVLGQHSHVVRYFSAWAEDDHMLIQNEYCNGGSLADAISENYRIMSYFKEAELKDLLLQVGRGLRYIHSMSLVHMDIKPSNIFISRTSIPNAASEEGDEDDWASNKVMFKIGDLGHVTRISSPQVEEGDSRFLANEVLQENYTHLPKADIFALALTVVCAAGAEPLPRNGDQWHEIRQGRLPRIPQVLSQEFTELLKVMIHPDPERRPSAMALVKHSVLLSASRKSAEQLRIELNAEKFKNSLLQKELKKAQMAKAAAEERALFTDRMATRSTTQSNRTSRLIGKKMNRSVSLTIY
T3 sequence (Q96SW2 whole entry): as the sequence (Q96SW2 whole entry) above
T3 sequence (Q16531 whole entry partner): as the sequence (Q16531 whole entry partner) above
How it was run: as §1

IKZF3 = target: T4, IKZF3 (Homo sapiens, UniProt Q96SW2+Q9UKT9); assay: Western blot degradation of IKZF3 in hPBMCs (24 h); type: cell-based; conditions: compounds at 50 nM and 500 nM
T4 construct: The supernatant was aspirated as the extracted total cell protein; endogenous in cells; host or cells: human peripheral blood mononuclear cells (hPBMCs)
How it was run: as §1

IKZF1 = target: T5, IKZF1 (Homo sapiens, UniProt Q13422+Q96SW2); assay: Western blot degradation of IKZF1 in hPBMCs (24 h); type: cell-based; conditions: compounds at 50 nM and 500 nM
T5 construct: The supernatant was aspirated as the extracted total cell protein; endogenous in cells; host or cells: human peripheral blood mononuclear cells (hPBMCs)
T5 sequence (Q13422 whole entry): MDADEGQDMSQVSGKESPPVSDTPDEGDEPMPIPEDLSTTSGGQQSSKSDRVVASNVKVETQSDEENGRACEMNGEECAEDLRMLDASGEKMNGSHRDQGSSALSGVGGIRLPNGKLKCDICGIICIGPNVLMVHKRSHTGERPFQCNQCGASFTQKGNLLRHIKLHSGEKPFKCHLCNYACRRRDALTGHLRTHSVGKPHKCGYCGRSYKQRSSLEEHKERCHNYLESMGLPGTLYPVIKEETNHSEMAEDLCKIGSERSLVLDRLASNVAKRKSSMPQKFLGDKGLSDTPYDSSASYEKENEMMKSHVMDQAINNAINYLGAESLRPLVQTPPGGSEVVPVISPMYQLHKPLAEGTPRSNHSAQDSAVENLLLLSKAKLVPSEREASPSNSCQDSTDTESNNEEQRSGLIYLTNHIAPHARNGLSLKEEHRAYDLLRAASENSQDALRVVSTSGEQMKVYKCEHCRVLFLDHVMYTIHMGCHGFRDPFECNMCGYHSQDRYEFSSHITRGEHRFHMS
T5 sequence (Q96SW2 whole entry): as the sequence (Q96SW2 whole entry) above
T5 sequence (Q16531 whole entry partner): as the sequence (Q16531 whole entry partner) above
How it was run: as §1

IKZF2 = target: T6, IKZF2 (Homo sapiens, UniProt Q96SW2+Q9UKS7); assay: Western blot degradation of IKZF2 in hPBMCs (24 h); type: cell-based; conditions: compounds at 50 nM and 500 nM
T6 construct: The supernatant was aspirated as the extracted total cell protein; endogenous in cells; host or cells: human peripheral blood mononuclear cells (hPBMCs)
T6 sequence (Q9UKS7 whole entry): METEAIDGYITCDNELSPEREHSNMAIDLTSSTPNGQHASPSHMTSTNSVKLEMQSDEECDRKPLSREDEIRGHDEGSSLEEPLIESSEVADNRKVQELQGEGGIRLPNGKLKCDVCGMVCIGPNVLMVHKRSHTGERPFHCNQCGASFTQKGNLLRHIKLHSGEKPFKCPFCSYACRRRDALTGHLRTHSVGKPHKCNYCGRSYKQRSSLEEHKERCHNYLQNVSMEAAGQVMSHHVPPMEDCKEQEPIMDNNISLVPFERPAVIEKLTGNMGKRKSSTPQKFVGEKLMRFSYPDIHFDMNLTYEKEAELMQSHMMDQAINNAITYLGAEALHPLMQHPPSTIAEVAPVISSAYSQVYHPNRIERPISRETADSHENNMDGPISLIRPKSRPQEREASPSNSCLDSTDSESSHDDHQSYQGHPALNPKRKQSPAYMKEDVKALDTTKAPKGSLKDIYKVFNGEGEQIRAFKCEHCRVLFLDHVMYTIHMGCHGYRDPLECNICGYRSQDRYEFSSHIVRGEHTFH
T6 sequence (Q96SW2 whole entry): as the sequence (Q96SW2 whole entry) above
T6 sequence (Q16531 whole entry partner): as the sequence (Q16531 whole entry partner) above
How it was run: as §1

MM.1S cells = assay: Inhibition of proliferation of multiple myeloma cells MM.1S (cell viability assay, 96 h); type: cell-based, human; conditions: read-out: inhibitory activity (IC50) against tumor cells proliferation, MM.1S
Experimental: as §2, §3, §4

T1 sequence (P15170 whole entry): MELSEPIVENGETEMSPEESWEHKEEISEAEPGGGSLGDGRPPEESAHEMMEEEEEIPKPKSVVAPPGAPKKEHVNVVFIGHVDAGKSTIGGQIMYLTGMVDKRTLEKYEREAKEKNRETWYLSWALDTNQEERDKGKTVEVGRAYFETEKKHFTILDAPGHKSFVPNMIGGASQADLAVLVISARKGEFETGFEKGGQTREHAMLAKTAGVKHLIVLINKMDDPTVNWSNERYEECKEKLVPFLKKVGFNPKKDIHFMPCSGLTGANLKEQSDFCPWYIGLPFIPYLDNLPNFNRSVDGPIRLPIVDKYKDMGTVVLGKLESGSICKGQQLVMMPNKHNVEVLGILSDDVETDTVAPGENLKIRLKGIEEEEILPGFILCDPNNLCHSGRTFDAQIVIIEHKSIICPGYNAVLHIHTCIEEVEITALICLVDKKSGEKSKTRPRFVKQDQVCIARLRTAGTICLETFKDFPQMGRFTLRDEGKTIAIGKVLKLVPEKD
T1 sequence (Q96SW2 whole entry): as the sequence (Q96SW2 whole entry) above
T1 sequence (Q16531 whole entry partner): as the sequence (Q16531 whole entry partner) above

SMILES | GSPT1 substrate protein remaining % (GSPT1) | CK1α substrate protein remaining % (CK1α) | IC50 (Jurkat cells) | WEE1 substrate protein remaining % (WEE1) | IKZF3 substrate protein remaining % (IKZF3) | IKZF1 substrate protein remaining % (IKZF1) | IKZF2 substrate protein remaining % (IKZF2) | IC50 (MM.1S cells)
O=C1CCN(N2Cc3cc(CN4CC=C(c5ccco5)CC4)ccc3C2=O)C(=O)N1 [GT-04874, 1-(5-((4-(furan-2-yl)-3,6-dihydropyridin-1(2H)-yl)methyl)-1-oxoisoindolin-2-yl)dihydropyrimidine-2,4(1H,3H)-dione] | A (0% ≤ substrate protein remaining % ≤80%) | B (80%< substrate protein remaining % ≤100%) | 500 to 1000 nM | A (0% ≤ substrate protein remaining % ≤80%) | A (0% ≤ substrate protein remaining % ≤80%) | A (0% ≤ substrate protein remaining % ≤80%) | B (80%< substrate protein remaining % ≤100%) | 100 to 300 nM
O=C1CCN(N2Cc3cc(CN4CC(N5CCc6cc(F)ccc65)C4)ccc3C2=O)C(=O)N1 [GT-05169, 1-(5-((3-(5-fluoroindolin-1-yl)azetidin-1-yl)methyl)-1-oxoisoindolin-2-yl)dihydropyrimidine-2,4(1H,3H)-dione] | A (0% ≤ substrate protein remaining % ≤80%) | B (80%< substrate protein remaining % ≤100%) |  | B (80%< substrate protein remaining % ≤100%) | A (0% ≤ substrate protein remaining % ≤80%) | B (80%< substrate protein remaining % ≤100%) | A (0% ≤ substrate protein remaining % ≤80%) | 100 to 300 nM
O=C1CCN(N2Cc3cc(CN4CC=C(c5nccc(Cl)c5Cl)CC4)ccc3C2=O)C(=O)N1 [GT-06392, 1-(5-((3,4-dichloro-3′,6′-dihydro-[2,4′-bipyridin]-1′ (2′H)-yl)methyl)-1-oxoisoindolin-2-yl)dihydropyrimidine-2,4(1H,3H)-dione] | A (0% ≤ substrate protein remaining % ≤80%) | A (0% ≤ substrate protein remaining % ≤80%) |  | A (0% ≤ substrate protein remaining % ≤80%) | A (0% ≤ substrate protein remaining % ≤80%) | B (80%< substrate protein remaining % ≤100%) | A (0% ≤ substrate protein remaining % ≤80%) | 300 to 500 nM
O=C1CCN(N2Cc3cc(CN4CC=C(c5cncc(Cl)c5Cl)CC4)ccc3C2=O)C(=O)N1 [GT-06393, 1-(5-((4,5-dichloro-3′,6′-dihydro-[3,4′-bipyridin]-1′ (2′H)-yl)methyl)-1-oxoisoindolin-2-yl)dihydropyrimidine-2,4(1H,3H)-dione] | A (0% ≤ substrate protein remaining % ≤80%) | A (0% ≤ substrate protein remaining % ≤80%) |  | A (0% ≤ substrate protein remaining % ≤80%) | A (0% ≤ substrate protein remaining % ≤80%) | B (80%< substrate protein remaining % ≤100%) | A (0% ≤ substrate protein remaining % ≤80%) | 500 to 1000 nM
CC1(C)CCC(CN2CC3CC(C2)N3Cc2ccc3c(c2)CN(N2CCC(=O)NC2=O)C3=O)=C(c2ccc(Cl)cc2)C1 [GT-06456, 1-(5-((3-((4′-chloro-5,5-dimethyl-3,4,5,6-tetrahydro-[1,1′-biphenyl]-2-yl)methyl)-3,6-diazabicyclo[3.1.1]heptan-6-yl)methyl)-1-oxoisoindolin-2-yl)dihydropyrimidine-2,4(1H,3H)-dione] | A (0% ≤ substrate protein remaining % ≤80%) | A (0% ≤ substrate protein remaining % ≤80%) |  | A (0% ≤ substrate protein remaining % ≤80%) | A (0% ≤ substrate protein remaining % ≤80%) | A (0% ≤ substrate protein remaining % ≤80%) | A (0% ≤ substrate protein remaining % ≤80%) | 100 to 300 nM
O=C1CCN(N2C(=O)c3ccc(CN4CCN(c5ncc(C(F)(F)F)cc5Cl)CC4)cc3C2=O)C(=O)N1 [GT-07026, 5-((4-(3-chloro-5-(trifluoromethyl)pyridin-2-yl)piperazin-1-yl)methyl)-2-(2,4-dioxotetrahydropyrimidin-1(2H)-yl)isoindoline-1,3-dione] | A (0% ≤ substrate protein remaining % ≤80%) | B (80%< substrate protein remaining % ≤100%) | 500 to 1000 nM | A (0% ≤ substrate protein remaining % ≤80%) | B (80%< substrate protein remaining % ≤100%) | B (80%< substrate protein remaining % ≤100%) | B (80%< substrate protein remaining % ≤100%) | 
O=C1CCN(N2Cc3cc(CN4CCN(C(c5cccc(F)c5)c5cccc(F)c5)CC4)ccc3C2=O)C(=O)N1 [GT-07293, 1-(5-((4-(bis(3-fluorophenyl)methyl)piperazin-1-yl)methyl)-1-oxoisoindolin-2-yl)dihydropyrimidine-2,4(1H,3H)-dione] | A (0% ≤ substrate protein remaining % ≤80%) | B (80%< substrate protein remaining % ≤100%) | 100 to 300 nM | A (0% ≤ substrate protein remaining % ≤80%) | A (0% ≤ substrate protein remaining % ≤80%) | B (80%< substrate protein remaining % ≤100%) | A (0% ≤ substrate protein remaining % ≤80%) | 100 to 300 nM
O=C1CCN(N2Cc3cc(CN4CCC(c5ccsc5)CC4)ccc3C2=O)C(=O)N1 [GT-07371, 1-(1-oxo-5-((4-(thiophen-3-yl)piperidin-1-yl)methyl)isoindolin-2-yl)dihydropyrimidine-2,4(1H,3H)-dione] | A (0% ≤ substrate protein remaining % ≤80%) | B (80%< substrate protein remaining % ≤100%) |  | B (80%< substrate protein remaining % ≤100%) | A (0% ≤ substrate protein remaining % ≤80%) | B (80%< substrate protein remaining % ≤100%) | B (80%< substrate protein remaining % ≤100%) | 500 to 1000 nM
Cc1ccc(C2CCN(Cc3ccc4c(c3)CN(N3CCC(=O)NC3=O)C4=O)CC2)s1 [GT-07425, 1-(5-((4-(5-methylthiophen-2-yl)piperidin-1-yl)methyl)-1-oxoisoindolin-2-yl)dihydropyrimidine-2,4(1H,3H)-dione] | A (0% ≤ substrate protein remaining % ≤80%) | B (80%< substrate protein remaining % ≤100%) |  | B (80%< substrate protein remaining % ≤100%) | B (80%< substrate protein remaining % ≤100%) | B (80%< substrate protein remaining % ≤100%) | B (80%< substrate protein remaining % ≤100%) | 500 to 1000 nM
O=C1CCN(N2Cc3cc(CN4CC=C(c5ccnc(Cl)c5Cl)CC4)ccc3C2=O)C(=O)N1 [GT-07432, 1-(5-((2′,3′-dichloro-3,6-dihydro-[4,4′-bipyridin]-1(2H)-yl)methyl)-1-oxoisoindolin-2-yl)dihydropyrimidine-2,4(1H,3H)-dione] | A (0% ≤ substrate protein remaining % ≤80%) | A (0% ≤ substrate protein remaining % ≤80%) | 500 to 1000 nM | A (0% ≤ substrate protein remaining % ≤80%) | A (0% ≤ substrate protein remaining % ≤80%) | A (0% ≤ substrate protein remaining % ≤80%) | A (0% ≤ substrate protein remaining % ≤80%) | 300 to 500 nM

Source: patent US20260356819A1, “OXOISOINDOLINYL-SUBSTITUTED […] DERIVATIVE AND USE THEREOF” (GLUETACS THERAPEUTICS (SHANGHAI) CO., LTD., priority 2023, published 2026)
